Experimental data taken from ChEMBL document CHEMBL4052829, “Identification of a Novel Hybridization from Isosorbide 5-Mononitrate and Bardoxolone Methyl with Dual Activities of Pulmonary Vasodilation and Vascular Remodeling Inhibition on Pulmonary Arterial Hypertension Rats” (J Med Chem, 2018).
Each block holds one compound with its values, some of them ahead of it. Activity calls are given as the source filed them. No cut-off for these calls is given here.

Legend:
[1] = Drug uptake in Sprague-Dawley rat lung at 1 mg/ml administered in trachea after 60 mins by LC-MS/MS analysis; type: ADME, tissue-based; conditions: inhaled or intranasal, read-out: Drug uptake
[2] = (§1) Drug uptake in Sprague-Dawley rat lung at 1 mg/ml administered in trachea after 180 mins by LC-MS/MS analysis; type: ADME; conditions: Sprague-Dawley, lung, inhaled or intranasal, 1 mg/ml, read-out: Drug uptake
Lung [3] = assay: as §1; type: ADME; conditions: in vivo, inhaled_or_intranasal, 3 h, BLD = below limit of detection
[4] = Drug uptake in Sprague-Dawley rat lung at 1 mg/ml administered in trachea after 360 mins by LC-MS/MS analysis; type: ADME, tissue-based; conditions: inhaled or intranasal, read-out: Drug uptake
Lung [5] = assay: Drug level in Sprague-Dawley rat lung treated with CDDO-NO at 1 mg/ml administered in trachea after 90 to 720 mins by LC-MS/MS analysis; type: ADME, tissue-based; conditions: in vivo, inhaled_or_intranasal
Plasma [6] = assay: Drug level in Sprague-Dawley rat plasma treated with CDDO-NO at 1 mg/ml administered in trachea after 15 to 720 mins by LC-MS/MS analysis; type: ADME, cell-free; conditions: inhaled_or_intranasal
Rattus norvegicus [7] = assay: Pulmonary vasodilatory effect in MCT-induced Sprague-Dawley rat pulmonary arterial hypertension model assessed as mean pulmonary artery pressure at 2.1 ug/kg, inhaled daily for 28 days by polygraph method (reference value: 30.63 +/- 1.16 mmHg); type: functional
Rattus norvegicus [8] = assay: Pulmonary vasodilatory effect in MCT-induced Sprague-Dawley rat pulmonary arterial hypertension model assessed as right ventricular systolic pressure at 2.1 ug/kg, inhaled daily for 28 days by polygraph method (reference value: 56.09 +/- 3.24 mmHg); type: functional
Rattus norvegicus [9] = assay: Pulmonary vasodilatory effect in MCT-induced Sprague-Dawley rat pulmonary arterial hypertension model assessed as weight ratio of right ventricle to left ventricle and septum at 2.1 ug/kg, inhaled daily for 28 days (reference value: 0.4796 +/- 0.030); type: functional
Rattus norvegicus [10] = assay: Pulmonary vasodilatory effect in MCT-induced Sprague-Dawley rat pulmonary arterial hypertension model assessed as mean pulmonary artery pressure at 2.1 ug/kg, inhaled daily for 28 days co-administered with ISMN by polygraph method (reference value: 30.63 +/- 1.16 mmHg); type: functional
Rattus norvegicus [11] = assay: Pulmonary vasodilatory effect in MCT-induced Sprague-Dawley rat pulmonary arterial hypertension model assessed as right ventricular systolic pressure at 2.1 ug/kg, inhaled daily for 28 days co-administered with ISMN by polygraph method (reference value: 56.09 +/- 3.24 mmHg); type: functional
Rattus norvegicus [12] = assay: Pulmonary vasodilatory effect in MCT-induced Sprague-Dawley rat pulmonary arterial hypertension model assessed as weight ratio of right ventricle to left ventricle and septum at 2.1 ug/kg, inhaled daily for 28 days co-administered with ISMN (reference value: 0.4796 +/- 0.030); type: functional
Rattus norvegicus [13] = assay: Inhibition of vascular remodeling in MCT-induced Sprague-Dawley rat pulmonary arterial hypertension model assessed as decrease in MCT-induced perivascular fibrosis at 3 ug/kg, inhaled daily for 28 days by masson's trichrome staining-based assay; type: functional
Lung [14] = assay: Drug metabolism in Sprague-Dawley rat lung assessed as formation of CDDO-Me at 1 mg/ml administered in trachea after 90 mins by LC-MS/MS analysis; type: ADME, tissue-based; conditions: in vivo, inhaled_or_intranasal, 1.5 h
Lung [15] = assay: Drug metabolism in Sprague-Dawley rat lung assessed as formation of CDDO-Me at 1 mg/ml administered in trachea after 12 hrs by LC-MS/MS analysis; type: ADME, tissue-based; conditions: in vivo, inhaled_or_intranasal
Plasma [16] = assay: Drug metabolism in Sprague-Dawley rat plasma assessed as formation of CDDO-Me at 1 mg/ml administered in trachea after 15 to 720 mins by LC-MS/MS analysis; type: ADME, cell-free; conditions: inhaled_or_intranasal
[17] = molecular target: T1, Nuclear factor erythroid 2-related factor 2 (Rattus norvegicus) (UniProt O54968); assay: Induction of Nrf2 translocation to nucleus of rat pulmonary artery endothelial cells at 1 uM after 24 hrs by immunofluorescence assay
T1 sequence (whole entry): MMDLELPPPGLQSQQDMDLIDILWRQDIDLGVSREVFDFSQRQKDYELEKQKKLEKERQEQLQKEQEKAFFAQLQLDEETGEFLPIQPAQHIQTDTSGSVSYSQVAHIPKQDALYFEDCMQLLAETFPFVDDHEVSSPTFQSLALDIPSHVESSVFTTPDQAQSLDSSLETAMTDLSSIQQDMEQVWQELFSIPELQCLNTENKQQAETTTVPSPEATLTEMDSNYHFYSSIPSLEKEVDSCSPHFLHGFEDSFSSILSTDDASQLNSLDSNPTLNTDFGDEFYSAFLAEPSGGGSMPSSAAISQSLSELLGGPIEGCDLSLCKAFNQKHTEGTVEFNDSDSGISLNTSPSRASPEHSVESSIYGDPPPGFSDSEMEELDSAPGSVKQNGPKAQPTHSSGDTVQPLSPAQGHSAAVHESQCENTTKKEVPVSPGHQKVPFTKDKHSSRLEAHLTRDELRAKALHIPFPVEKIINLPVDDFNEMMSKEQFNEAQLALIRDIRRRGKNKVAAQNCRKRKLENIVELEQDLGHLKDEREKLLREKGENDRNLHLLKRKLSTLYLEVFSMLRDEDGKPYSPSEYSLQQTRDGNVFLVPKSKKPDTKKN

Rattus norvegicus [18] = assay: Pulmonary vasodilatory effect in MCT-induced Sprague-Dawley rat pulmonary arterial hypertension model assessed as mean pulmonary artery pressure at 3 ug/kg, inhaled daily for 28 days by polygraph method (reference value: 30.63 +/- 1.16 mmHg); type: functional
Rattus norvegicus [19] = assay: Pulmonary vasodilatory effect in MCT-induced Sprague-Dawley rat pulmonary arterial hypertension model assessed as right ventricular systolic pressure at 3 ug/kg, inhaled daily for 28 days by polygraph method (reference value: 56.09 +/- 3.24 mmHg); type: functional
Rattus norvegicus [20] = assay: Pulmonary vasodilatory effect in MCT-induced Sprague-Dawley rat pulmonary arterial hypertension model assessed as weight ratio of right ventricle to left ventricle and septum at 3 ug/kg, inhaled daily for 28 days (reference value: 0.4796 +/- 0.030); type: functional
Rattus norvegicus [21] = assay: Pulmonary vasodilatory effect in MCT-induced Sprague-Dawley rat pulmonary arterial hypertension model assessed as reversal of MCT-induced nitric oxide reduction in plasma at 3 ug/kg, inhaled daily for 28 days by Griess assay; type: functional
Rattus norvegicus [22] = assay: Pulmonary vasodilatory effect in MCT-induced Sprague-Dawley rat pulmonary arterial hypertension model assessed as reversal of MCT-induced ET-1 elevation in plasma at 3 ug/kg, inhaled daily for 28 days by ELISA; type: functional
Rattus norvegicus [23] = assay: Inhibition of vascular remodeling in MCT-induced Sprague-Dawley rat pulmonary arterial hypertension model assessed as reduction of MCT-induced medial thickness of pulmonary artery at 3 ug/kg, inhaled daily for 28 days by hematoxylin and eosin staining-based assay; type: functional
Rattus norvegicus [24] = assay: Inhibition of vascular remodeling in MCT-induced Sprague-Dawley rat pulmonary arterial hypertension model assessed as reduction of MCT-induced pulmonary vascular muscularization by measuring downregulation of alpha-SMA levels at 3 ug/kg, inhaled daily for 28 days by immunohistochemical method; type: functional
Rattus norvegicus [25] = assay: Inhibition of vascular remodeling in MCT-induced Sprague-Dawley rat pulmonary arterial hypertension model assessed as downregulation of MCT-induced up-expression of alpha-SMA at 3 ug/kg, inhaled daily for 28 days by Western blot method; type: functional
Rattus norvegicus [26] = assay: Inhibition of vascular remodeling in MCT-induced Sprague-Dawley rat pulmonary arterial hypertension model assessed as decrease in MCT-induced TGF-beta expression in lung at 3 ug/kg, inhaled daily for 28 days by Western blot method; type: functional
Rattus norvegicus [27] = assay: Inhibition of vascular remodeling in MCT-induced Sprague-Dawley rat pulmonary arterial hypertension model assessed as decrease in MCT-induced collagen-1 expression in lung at 3 ug/kg, inhaled daily for 28 days by Western blot method; type: functional
Rattus norvegicus [28] = assay: Inhibition of vascular remodeling in MCT-induced Sprague-Dawley rat pulmonary arterial hypertension model assessed as decrease in MCT-induced increment of PCNA positive cells in lung at 3 ug/kg, inhaled daily for 28 days by immunohistochemical method; type: functional
Rattus norvegicus [29] = assay: Inhibition of vascular remodeling in MCT-induced Sprague-Dawley rat pulmonary arterial hypertension model assessed as decrease in MCT-induced macrophage infiltration in perivascular tissue at 3 ug/kg, inhaled daily for 28 days by immunohistochemical method; type: functional
Rattus norvegicus [30] = assay: Inhibition of oxidative response in lung of MCT-induced Sprague-Dawley rat pulmonary arterial hypertension model assessed as decrease in ratio of NOX4 positive cells and NOX4 expression at 3 ug/kg, inhaled daily for 28 days by immunohistochemical method; type: functional
Rattus norvegicus [31] = assay: Inhibition of oxidative response in lung of MCT-induced Sprague-Dawley rat pulmonary arterial hypertension model assessed as decrease in ratio of NOX4 positive cells and NOX4 expression at 3 ug/kg, inhaled daily for 28 days by Western blot method; type: functional
Rattus norvegicus [32] = assay: Inhibition of cardiomyocyte hypertrophy in MCT-induced Sprague-Dawley rat pulmonary arterial hypertension model at 3 ug/kg, inhaled daily for 28 days by hematoxylin and eosin staining-based assay; type: functional
Rattus norvegicus [33] = assay: Inhibition of cardiac fibrosis in MCT-induced Sprague-Dawley rat pulmonary arterial hypertension model at 3 ug/kg, inhaled daily for 28 days by picro-sirius red staining-based assay; type: functional
Rattus norvegicus [34] = assay: Pulmonary vasodilatory effect in MCT-induced Sprague-Dawley rat pulmonary arterial hypertension model assessed as mean pulmonary artery pressure at 0.78 ug/kg, inhaled daily for 28 days by polygraph method (reference value: 30.63 +/- 1.16 mmHg); type: functional
Rattus norvegicus [35] = assay: Pulmonary vasodilatory effect in MCT-induced Sprague-Dawley rat pulmonary arterial hypertension model assessed as right ventricular systolic pressure at 0.78 ug/kg, inhaled daily for 28 days by polygraph method (reference value: 56.09 +/- 3.24 mmHg); type: functional
Rattus norvegicus [36] = assay: Pulmonary vasodilatory effect in MCT-induced Sprague-Dawley rat pulmonary arterial hypertension model assessed as weight ratio of right ventricle to left ventricle and septum at 0.78 ug/kg, inhaled daily for 28 days (reference value: 0.4796 +/- 0.030); type: functional
Rattus norvegicus [37] = assay: Pulmonary vasodilatory effect in MCT-induced Sprague-Dawley rat pulmonary arterial hypertension model assessed as mean pulmonary artery pressure at 0.78 ug/kg, inhaled daily for 28 days co-administered with CDDO-Me by polygraph method (reference value: 30.63 +/- 1.16 mmHg); type: functional
Rattus norvegicus [38] = assay: Pulmonary vasodilatory effect in MCT-induced Sprague-Dawley rat pulmonary arterial hypertension model assessed as right ventricular systolic pressure at 0.78 ug/kg, inhaled daily for 28 days co-administered with CDDO-Me by polygraph method (reference value: 56.09 +/- 3.24 mmHg); type: functional
Rattus norvegicus [39] = assay: Pulmonary vasodilatory effect in MCT-induced Sprague-Dawley rat pulmonary arterial hypertension model assessed as weight ratio of right ventricle to left ventricle and septum at 0.78 ug/kg, inhaled daily for 28 days co-administered with CDDO-Me (reference value: 0.4796 +/- 0.030); type: functional

concentration at 1 h [1]: 180 to 444 ng/mL | concentration at 3 h [2]: 44.8 ng/mL | Drug uptake (Lung [3]): Bld | concentration at 6 h [4]: 3.4 ng/mL | Drug metabolism (Lung [5]): Metabolite_Detected | Drug metabolism (Plasma [6]): Metabolite_Detected
SMILES: COC(=O)[C@]12CCC(C)(C)C[C@H]1[C@H]1C(=O)C=C3[C@@]4(C)C=C(C#N)C(=O)C(C)(C)[C@@H]4CC[C@@]3(C)[C@]1(C)CC2 [BARDOXOLONE METHYL]
Activity (Rattus norvegicus [7]): 26.29 mmHg | Activity (Rattus norvegicus [8]): 61.24 mmHg | Ratio (Rattus norvegicus [9]): 0.5123 | Activity (Rattus norvegicus [10]): 27.3 mmHg | Activity (Rattus norvegicus [11]): 60.12 mmHg | Ratio (Rattus norvegicus [12]): 0.4898

concentration at 1 h [1]: 243 ng/mL | Drug metabolism (Lung [14]): 78.5 ng/mL | Drug metabolism (Lung [15]): 15.9 ng/mL | Drug metabolism (Plasma [16]): Metabolite_Detected | Activity [17]: Active
SMILES: COC(=O)[C@]12CCC(C)(C)C[C@H]1[C@H]1C(=O)C=C3[C@@]4(C)C(O[C@@H]5CO[C@H]6[C@@H]5OC[C@H]6O[N+](=O)[O-])C(C#N)=C(OC(C)=O)C(C)(C)[C@@H]4CC[C@@]3(C)[C@]1(C)CC2 (stereo not given in full)
inhibition (Rattus norvegicus [13]): Active | Activity (Rattus norvegicus [18]): 20.72 mmHg | Activity (Rattus norvegicus [19]): 44.75 mmHg | Ratio (Rattus norvegicus [20]): 0.3656 | Activity (Rattus norvegicus [21]): Active | Activity (Rattus norvegicus [22]): Active | inhibition (Rattus norvegicus [23]): Active | inhibition (Rattus norvegicus [24]): Active | inhibition (Rattus norvegicus [25]): Active | inhibition (Rattus norvegicus [26]): Active | inhibition (Rattus norvegicus [27]): Active | inhibition (Rattus norvegicus [28]): Active | inhibition (Rattus norvegicus [29]): Active | inhibition (Rattus norvegicus [30]): Active | inhibition (Rattus norvegicus [31]): Active | inhibition (Rattus norvegicus [32]): Active | inhibition (Rattus norvegicus [33]): Active

SMILES: O=[N+]([O-])O[C@@H]1CO[C@H]2[C@@H]1OC[C@H]2O
Activity (Rattus norvegicus [34]): 25.11 mmHg | Activity (Rattus norvegicus [35]): 60.76 mmHg | Ratio (Rattus norvegicus [36]): 0.4844 | Activity (Rattus norvegicus [37]): 27.3 mmHg | Activity (Rattus norvegicus [38]): 60.12 mmHg | Ratio (Rattus norvegicus [39]): 0.4898
